Broadly, the IC50 is the concentration that inhibits the measured activity by half. One may read the inhibition as the change of the read-out against control, counted positive when it falls. Usually pKi stands for the Ki on a negative log10 scale, so that one unit is a factor of ten.

Calls of active or inactive are those of the source. The calls are words filed in the database; no cut-off is given here.

The subject of experiment [1] is Epidermal growth factor receptor (Homo sapiens), P00533 [G719C]. As to conditions: Compound concentration 100.0 nM.
Experiment [2] concerns the target cAMP-dependent protein kinase catalytic subunit alpha (Homo sapiens) (UniProt P17612). The note with it: Compound concentration 100.0 nM.
Experiment [3] deals with Receptor-type tyrosine-protein kinase FLT3 (Homo sapiens), P36888 [D835H]. The note with it: Compound concentration 100.0 nM.
For experiment [4], the target named is LIM domain kinase 1 (Homo sapiens) (UniProt P53667). As to conditions: Compound concentration 100.0 nM.
Sequence of LIM domain kinase 1 (Homo sapiens) (P53667 whole entry, looked up, the tested form may be a part): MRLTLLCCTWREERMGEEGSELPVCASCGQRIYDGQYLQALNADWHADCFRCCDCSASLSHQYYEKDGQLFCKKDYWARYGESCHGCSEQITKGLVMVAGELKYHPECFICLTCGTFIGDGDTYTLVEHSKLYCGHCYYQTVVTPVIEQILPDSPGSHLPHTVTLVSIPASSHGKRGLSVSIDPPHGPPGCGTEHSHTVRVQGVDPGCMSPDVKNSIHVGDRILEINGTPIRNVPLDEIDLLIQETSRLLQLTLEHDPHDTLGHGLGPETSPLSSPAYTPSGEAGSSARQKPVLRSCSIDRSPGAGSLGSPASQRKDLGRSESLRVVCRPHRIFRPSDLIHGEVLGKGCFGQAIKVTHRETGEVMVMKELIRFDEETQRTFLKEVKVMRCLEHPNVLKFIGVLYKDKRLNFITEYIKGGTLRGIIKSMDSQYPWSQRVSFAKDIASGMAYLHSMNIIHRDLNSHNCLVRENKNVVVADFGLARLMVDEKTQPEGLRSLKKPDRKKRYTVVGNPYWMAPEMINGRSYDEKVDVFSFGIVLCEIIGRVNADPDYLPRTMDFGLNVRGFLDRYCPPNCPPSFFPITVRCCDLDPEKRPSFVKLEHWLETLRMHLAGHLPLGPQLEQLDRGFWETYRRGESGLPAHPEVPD
The target of experiment [5] is RAC-beta serine/threonine-protein kinase (Homo sapiens) (UniProt P31751). The note with it: Compound concentration 100.0 nM.
The target in experiment [6] is Ribosomal protein S6 kinase alpha-2 (Homo sapiens) (UniProt Q15349). The note with it: Compound concentration 100.0 nM.
Sequence of Ribosomal protein S6 kinase alpha-2 (Homo sapiens) (Q15349 whole entry): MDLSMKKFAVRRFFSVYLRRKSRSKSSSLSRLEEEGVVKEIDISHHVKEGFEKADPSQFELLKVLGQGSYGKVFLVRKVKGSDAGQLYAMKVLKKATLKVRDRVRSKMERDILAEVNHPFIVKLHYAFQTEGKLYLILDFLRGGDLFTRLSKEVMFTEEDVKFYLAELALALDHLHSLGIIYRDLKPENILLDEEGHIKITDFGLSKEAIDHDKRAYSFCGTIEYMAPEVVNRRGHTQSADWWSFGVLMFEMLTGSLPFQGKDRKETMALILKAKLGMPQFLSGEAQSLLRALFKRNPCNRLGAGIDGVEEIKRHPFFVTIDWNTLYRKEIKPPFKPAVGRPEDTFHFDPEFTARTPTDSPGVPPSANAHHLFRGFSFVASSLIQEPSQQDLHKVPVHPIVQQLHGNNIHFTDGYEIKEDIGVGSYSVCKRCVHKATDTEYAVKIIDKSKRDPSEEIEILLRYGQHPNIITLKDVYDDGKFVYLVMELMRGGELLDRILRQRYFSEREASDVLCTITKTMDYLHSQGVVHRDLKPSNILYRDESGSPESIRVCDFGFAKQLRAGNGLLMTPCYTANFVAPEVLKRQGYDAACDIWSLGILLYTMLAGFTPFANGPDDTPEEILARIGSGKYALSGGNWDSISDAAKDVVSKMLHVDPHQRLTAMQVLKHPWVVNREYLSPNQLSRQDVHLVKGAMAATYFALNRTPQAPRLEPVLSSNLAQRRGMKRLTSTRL
Experiment [7] addresses Heat shock protein beta-1 (Homo sapiens, UniProt P04792). The experiment can be described thus: Inhibition of HSP27 (Ser82) (Western blot). For orientation: Immunoblotting shows a protein as a band on a membrane.
Experiment [8] deals with SRSF protein kinase 1 (Homo sapiens) (UniProt Q96SB4). The note with it: Compound concentration 100.0 nM.
Experiment [9] concerns the target Mitogen-activated protein kinase kinase kinase 13 (Homo sapiens) (UniProt O43283). As to conditions: Compound concentration 100.0 nM.
The test system of experiment [10] is Epidermal growth factor receptor (Homo sapiens), P00533 [L858R,T790M]. As to conditions: Compound concentration 100.0 nM.
Experiment [11] deals with Mitogen-activated protein kinase kinase kinase kinase 4 (Homo sapiens) (UniProt O95819). The note with it: Compound concentration 100.0 nM.
Another experiment is filed under the species Rattus norvegicus. The note with it: Compound concentration 10.0 uM.
The target in experiment [12] is Ribosomal protein S6 kinase alpha-6 (Homo sapiens) (UniProt Q9UK32). The note with it: Compound concentration 100.0 nM.
Experiment [13] deals with Cyclin-dependent kinase 14 (Homo sapiens) (UniProt O94921). The note with it: Compound concentration 100.0 nM.
Sequence of Cyclin-dependent kinase 14 (Homo sapiens) (O94921 whole entry): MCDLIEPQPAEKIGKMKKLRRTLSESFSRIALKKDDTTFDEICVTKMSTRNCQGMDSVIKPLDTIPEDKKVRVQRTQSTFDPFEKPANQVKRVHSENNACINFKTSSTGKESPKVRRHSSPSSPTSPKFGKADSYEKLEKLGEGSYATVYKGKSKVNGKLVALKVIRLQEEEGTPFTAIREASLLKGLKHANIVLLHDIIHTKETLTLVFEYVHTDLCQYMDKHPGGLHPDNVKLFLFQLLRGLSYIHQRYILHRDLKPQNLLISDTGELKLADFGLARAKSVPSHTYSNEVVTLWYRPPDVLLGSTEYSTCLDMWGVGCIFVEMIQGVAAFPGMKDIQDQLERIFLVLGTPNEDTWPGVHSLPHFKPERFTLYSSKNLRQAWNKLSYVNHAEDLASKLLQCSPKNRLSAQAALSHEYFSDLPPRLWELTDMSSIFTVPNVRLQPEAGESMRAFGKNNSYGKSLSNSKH
Experiment [14] concerns the target TRAF2 and NCK-interacting protein kinase (Homo sapiens) (UniProt Q9UKE5). As to conditions: Compound concentration 100.0 nM.
Experiment [15] addresses Mitogen-activated protein kinase 3 (Homo sapiens) (UniProt P27361). The note with it: Compound concentration 100.0 nM.
In experiment [16] the target is Serine/threonine-protein kinase BRSK2 (Homo sapiens) (UniProt Q8IWQ3). As to conditions: Compound concentration 100.0 nM.
Sequence of Serine/threonine-protein kinase BRSK2 (Homo sapiens) (Q8IWQ3 whole entry): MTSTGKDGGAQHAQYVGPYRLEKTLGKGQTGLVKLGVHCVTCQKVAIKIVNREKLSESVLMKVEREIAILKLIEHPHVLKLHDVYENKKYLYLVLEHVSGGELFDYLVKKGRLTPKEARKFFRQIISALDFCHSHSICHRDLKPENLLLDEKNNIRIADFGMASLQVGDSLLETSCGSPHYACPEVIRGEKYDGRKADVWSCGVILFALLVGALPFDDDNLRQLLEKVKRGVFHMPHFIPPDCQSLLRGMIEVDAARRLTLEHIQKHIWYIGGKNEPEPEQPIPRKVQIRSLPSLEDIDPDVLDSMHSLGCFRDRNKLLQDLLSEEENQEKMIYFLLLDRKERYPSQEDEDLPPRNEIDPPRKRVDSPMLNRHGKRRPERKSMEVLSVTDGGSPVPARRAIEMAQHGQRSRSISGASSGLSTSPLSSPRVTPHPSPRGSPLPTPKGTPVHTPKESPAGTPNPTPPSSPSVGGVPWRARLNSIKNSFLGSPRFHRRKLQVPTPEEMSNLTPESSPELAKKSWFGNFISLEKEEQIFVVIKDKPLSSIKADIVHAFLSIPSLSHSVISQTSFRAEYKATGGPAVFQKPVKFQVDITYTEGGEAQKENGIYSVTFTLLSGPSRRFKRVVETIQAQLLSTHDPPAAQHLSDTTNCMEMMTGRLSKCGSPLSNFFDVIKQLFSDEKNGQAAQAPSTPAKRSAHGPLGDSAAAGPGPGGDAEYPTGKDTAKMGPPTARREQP
Experiment [17] addresses Tyrosine-protein kinase ABL2 (Homo sapiens) (UniProt P42684). The note with it: Compound concentration 100.0 nM.
Experiment [18] addresses Histamine H2 receptor (Homo sapiens) (UniProt P25021). The note with it: Compound concentration 10.0 uM.
A further experiment has as its target Histamine H1 receptor (Homo sapiens, UniProt P35367). The experiment can be described thus: GPCRScan assay: inhibition of H1. Also on record: radioligand conc. used [nm] 0.6 – 2.0, parental cells stable HEK.
In experiment [19] the target is Sigma intracellular receptor 2 (Homo sapiens, UniProt Q5BJF2). Description: GPCRScan assay: inhibition of Sigma 2. Also on record: radioligand conc. used [nm] 5.0, parental cells HEKT.
Sequence of Sigma intracellular receptor 2 (Q5BJF2 whole entry): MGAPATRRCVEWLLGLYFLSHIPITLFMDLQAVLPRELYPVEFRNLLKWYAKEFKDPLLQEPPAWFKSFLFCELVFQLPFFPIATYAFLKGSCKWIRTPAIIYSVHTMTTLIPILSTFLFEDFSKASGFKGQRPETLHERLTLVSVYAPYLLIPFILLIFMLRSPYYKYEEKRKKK
Experiment [20] has as its target Mitogen-activated protein kinase 14 (Homo sapiens) (UniProt Q16539). As to conditions: Compound concentration 100.0 nM.
Experiment [21] deals with Kappa-type opioid receptor (Homo sapiens, UniProt P41145). Description: GPCRScan assay: inhibition of KOR. The arrangement: radioligand conc. used [nm] 0.6 – 1.2, parental cells stable HEK.
Experiment [22] concerns the target D(4) dopamine receptor (Homo sapiens) (UniProt P21917). The note with it: Compound concentration 10.0 uM.
For experiment [23], the target named is Muscarinic acetylcholine receptor M5 (Homo sapiens) (UniProt P08912). The note with it: Compound concentration 10.0 uM.

Sequence of Mitogen-activated protein kinase 3 (Homo sapiens) (P27361 whole entry): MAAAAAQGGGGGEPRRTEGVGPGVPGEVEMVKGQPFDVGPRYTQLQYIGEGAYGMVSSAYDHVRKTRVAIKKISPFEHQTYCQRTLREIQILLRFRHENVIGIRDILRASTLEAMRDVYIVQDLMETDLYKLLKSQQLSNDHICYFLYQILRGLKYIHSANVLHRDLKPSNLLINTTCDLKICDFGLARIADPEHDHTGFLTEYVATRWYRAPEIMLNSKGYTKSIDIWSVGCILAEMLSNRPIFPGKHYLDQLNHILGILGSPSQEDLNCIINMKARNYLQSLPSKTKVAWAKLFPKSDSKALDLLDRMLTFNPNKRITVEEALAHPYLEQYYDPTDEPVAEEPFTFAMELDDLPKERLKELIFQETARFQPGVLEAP
Sequence of TRAF2 and NCK-interacting protein kinase (Homo sapiens) (Q9UKE5 whole entry, looked up): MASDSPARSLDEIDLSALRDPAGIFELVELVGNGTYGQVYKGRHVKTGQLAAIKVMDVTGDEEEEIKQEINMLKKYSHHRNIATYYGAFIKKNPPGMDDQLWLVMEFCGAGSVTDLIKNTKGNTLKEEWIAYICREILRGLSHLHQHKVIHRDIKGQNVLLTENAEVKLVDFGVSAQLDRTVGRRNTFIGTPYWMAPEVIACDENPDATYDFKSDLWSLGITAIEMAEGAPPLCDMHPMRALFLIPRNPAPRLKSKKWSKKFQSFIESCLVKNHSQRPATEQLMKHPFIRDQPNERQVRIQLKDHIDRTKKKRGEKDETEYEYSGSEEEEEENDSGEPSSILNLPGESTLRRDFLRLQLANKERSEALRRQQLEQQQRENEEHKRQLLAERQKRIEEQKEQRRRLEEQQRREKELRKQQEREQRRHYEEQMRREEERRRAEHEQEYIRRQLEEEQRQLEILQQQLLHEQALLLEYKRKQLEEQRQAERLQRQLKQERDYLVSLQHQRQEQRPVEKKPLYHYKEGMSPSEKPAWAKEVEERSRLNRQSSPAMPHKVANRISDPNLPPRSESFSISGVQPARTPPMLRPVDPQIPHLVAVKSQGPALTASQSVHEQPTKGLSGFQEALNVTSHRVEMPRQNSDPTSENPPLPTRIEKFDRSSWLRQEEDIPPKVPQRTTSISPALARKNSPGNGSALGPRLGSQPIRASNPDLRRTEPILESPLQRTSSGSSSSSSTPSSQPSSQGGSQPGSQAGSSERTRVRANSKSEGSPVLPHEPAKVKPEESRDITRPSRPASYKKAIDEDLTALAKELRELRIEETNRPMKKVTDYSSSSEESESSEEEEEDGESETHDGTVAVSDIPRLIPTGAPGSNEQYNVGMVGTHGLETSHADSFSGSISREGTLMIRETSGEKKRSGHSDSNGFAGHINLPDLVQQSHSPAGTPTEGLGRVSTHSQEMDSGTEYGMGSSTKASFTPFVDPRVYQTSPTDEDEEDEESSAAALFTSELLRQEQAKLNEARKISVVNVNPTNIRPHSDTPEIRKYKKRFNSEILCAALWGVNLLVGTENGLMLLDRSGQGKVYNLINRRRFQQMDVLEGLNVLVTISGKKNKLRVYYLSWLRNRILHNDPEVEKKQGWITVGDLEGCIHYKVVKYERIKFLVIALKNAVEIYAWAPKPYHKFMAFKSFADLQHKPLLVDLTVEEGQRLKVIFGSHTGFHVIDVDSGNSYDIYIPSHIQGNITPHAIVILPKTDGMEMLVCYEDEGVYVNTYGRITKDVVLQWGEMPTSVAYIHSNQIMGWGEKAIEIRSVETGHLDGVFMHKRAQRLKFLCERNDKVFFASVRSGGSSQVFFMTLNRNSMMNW
Sequence of Histamine H1 receptor (P35367 whole entry): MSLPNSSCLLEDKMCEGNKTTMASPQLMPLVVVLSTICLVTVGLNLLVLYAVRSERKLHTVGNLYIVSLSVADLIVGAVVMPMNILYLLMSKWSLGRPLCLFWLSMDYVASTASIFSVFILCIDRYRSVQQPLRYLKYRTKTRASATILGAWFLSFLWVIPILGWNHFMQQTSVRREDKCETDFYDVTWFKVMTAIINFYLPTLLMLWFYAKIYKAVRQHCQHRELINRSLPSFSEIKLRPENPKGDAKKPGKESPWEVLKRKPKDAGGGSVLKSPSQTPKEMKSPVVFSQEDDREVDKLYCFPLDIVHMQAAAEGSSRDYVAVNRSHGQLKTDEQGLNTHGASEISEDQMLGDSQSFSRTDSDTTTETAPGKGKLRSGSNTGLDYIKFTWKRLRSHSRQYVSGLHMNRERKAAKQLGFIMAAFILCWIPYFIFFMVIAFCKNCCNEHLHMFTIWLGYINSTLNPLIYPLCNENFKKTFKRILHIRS

As for `Nc1c(C(=O)NCc2ccc(C(=O)NCCCC3CCCCC3)cc2)cnn1-c1ccccc1` [SR-318], the residual activity in experiment [1] was 85%; in [2], 100%; in [3], 100%; in [4], 100%; in experiment [5], 96%; in [6] it was 90%. Also, the residual activity is 90% in experiment [8]; 100% in experiment [9]; 96% in experiment [10]; 87% in [11]; 61% in [12]; 100% in experiment [13]. Also, the residual activity was 100% in experiment [14], 94% in experiment [15], 79% in [16] and 100% in experiment [17]. The IC50 in experiment [7] is < 1000 nM (active). Further, in the experiment listed under Rattus norvegicus, the inhibition is 27.6%.
Regarding `O=C(NCCCC1CCCCC1)c1ccc(CNC(=O)c2cnn(-c3ccccc3)c2C(F)(F)F)cc1` [SR-321], the residual activity in experiment [1] was 96%; in experiment [2], 100%; in experiment [3] it was 100%; in [4] it was 100%; in experiment [5], 100%; in [6], 96%. Moreover, the residual activity in experiment [8] is 95%; in [9], 100%; in [10], 95%; in [11] it was 81%; in [12], 92%; in experiment [13], 100%. In addition, the residual activity in experiment [14] was 100%; in experiment [15], 93%; in experiment [20], 100%; in [16] it was 100%; in [17] it was 87%. Moreover, the inhibition was -2.78% in [18], 21.7% in experiment [22] and -4.46% in experiment [23]. Moreover, the Ki was above 10000 nM on Histamine H1 receptor, 2890 nM in experiment [19] (read-out: Ki), 2820 nM in experiment [19] (read-out: pKi (converted)) and above 10000 nM in experiment [21]. The pKi (at Histamine H1 receptor; in experiment [21]) was below 5 in each case.

Values taken from ChEMBL document CHEMBL4507315 (2021).
